Source: ChEMBL document CHEMBL1128134, “Characterization of a continuous fluorogenic assay for calpain I. Kinetic evaluation of peptide aldehydes, halomethyl ketones and (acyloxy)methyl ketones as inhibitors of the enzyme” (Bioorg Med Chem Lett, 1995)
Peptide text beside a SMILES is read from it. * marks the point of attachment. Cbz = O=C(OCc1ccccc1)*

T1: Calpain-1 catalytic subunit (Homo sapiens) (UniProt P07384)
T1 sequence (whole entry): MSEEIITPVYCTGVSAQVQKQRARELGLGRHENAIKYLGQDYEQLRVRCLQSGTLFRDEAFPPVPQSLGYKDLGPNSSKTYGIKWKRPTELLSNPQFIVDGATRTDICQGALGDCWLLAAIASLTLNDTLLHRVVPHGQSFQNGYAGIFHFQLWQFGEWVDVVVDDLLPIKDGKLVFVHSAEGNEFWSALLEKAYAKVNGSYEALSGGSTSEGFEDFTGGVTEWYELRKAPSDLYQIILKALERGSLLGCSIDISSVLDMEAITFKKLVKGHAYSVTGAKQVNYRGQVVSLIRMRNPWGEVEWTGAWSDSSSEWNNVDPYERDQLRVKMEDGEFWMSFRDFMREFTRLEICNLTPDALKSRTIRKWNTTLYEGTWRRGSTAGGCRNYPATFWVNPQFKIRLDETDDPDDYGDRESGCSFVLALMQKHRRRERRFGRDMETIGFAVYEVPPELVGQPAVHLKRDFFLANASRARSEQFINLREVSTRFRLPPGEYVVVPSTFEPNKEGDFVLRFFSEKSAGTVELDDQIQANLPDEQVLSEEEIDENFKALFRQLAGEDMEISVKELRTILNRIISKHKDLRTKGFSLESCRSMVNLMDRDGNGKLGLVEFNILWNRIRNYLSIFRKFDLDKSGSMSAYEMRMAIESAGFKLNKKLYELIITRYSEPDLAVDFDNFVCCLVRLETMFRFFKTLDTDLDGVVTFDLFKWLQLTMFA

B1: Calpain-1 catalytic subunit (Homo sapiens), P07384 (protein)
chain: MSEEIITPVYCTGVSAQVQKQRARELGLGRHENAIKYLGQDYEQLRVRCLQSGTLFRDEAFPPVPQSLGYKDLGPNSSKTYGIKWKRPTELLSNPQFIVDGATRTDICQGALGDCWLLAAIASLTLNDTLLHRVVPHGQSFQNGYAGIFHFQLWQFGEWVDVVVDDLLPIKDGKLVFVHSAEGNEFWSALLEKAYAKVNGSYEALSGGSTSEGFEDFTGGVTEWYELRKAPSDLYQIILKALERGSLLGCSIDISSVLDMEAITFKKLVKGHAYSVTGAKQVNYRGQVVSLIRMRNPWGEVEWTGAWSDSSSEWNNVDPYERDQLRVKMEDGEFWMSFRDFMREFTRLEICNLTPDALKSRTIRKWNTTLYEGTWRRGSTAGGCRNYPATFWVNPQFKIRLDETDDPDDYGDRESGCSFVLALMQKHRRRERRFGRDMETIGFAVYEVPPELVGQPAVHLKRDFFLANASRARSEQFINLREVSTRFRLPPGEYVVVPSTFEPNKEGDFVLRFFSEKSAGTVELDDQIQANLPDEQVLSEEEIDENFKALFRQLAGEDMEISVKELRTILNRIISKHKDLRTKGFSLESCRSMVNLMDRDGNGKLGLVEFNILWNRIRNYLSIFRKFDLDKSGSMSAYEMRMAIESAGFKLNKKLYELIITRYSEPDLAVDFDNFVCCLVRLETMFRFFKTLDTDLDGVVTFDLFKWLQLTMFA

How the values were obtained:
[1] = target: T1, Calpain-1 catalytic subunit (Homo sapiens); assay: Rate of catalysis as a measure of ability to serve as substrate of Calpain
[2] = Ratio of rate of catalysis to Michaelis-Menten constant was determined
Calpain 1 (Homo sapiens) = Calpain 1 (Homo sapiens) (UniProt P04632+P07384); assay: Apparent second order rate constant for inhibition of calpain-1 by fluorogenic assay.; format: protein-complex assay
[3] = target: T1, Calpain-1 catalytic subunit (Homo sapiens); assay: Compound was tested for apparent second order rate constant for inhibition of calpain I in an endpoint (non-continuous) calpain assay
Calpain 1 = Calpain 1 (Homo sapiens, UniProt P07384); assay: Inhibition of Calpain 1 by [3H]acetyl-casein assay; format: protein-complex assay
[4] = substrate: CC(C)C[C@H](NC(=O)OCc1ccccc1)C(=O)N[C@@H](CCCN=C(N)N)C(=O)Nc1ccc2c(C(F)(F)F)cc(=O)oc2c1; assay: (§1) Michaelis-Menten kinetics value as a measure of ability to serve as substrate of Calpain
[5] = substrate: COc1ccc2cccc(NC(=O)[C@@H](CCCN=C(N)N)NC(=O)[C@H](CC(C)C)NC(=O)[C@@H](NC(=O)OCc3ccccc3)C(C)C)c2c1; assay: as §1
[6] = substrate: COc1ccc2cccc(NC(=O)[C@H](CCCN=C(N)N)NC(=O)[C@H](CC(C)C)NC(=O)OCc3ccccc3)c2c1; assay: as §1
[7] = substrate: Cc1cc(=O)oc2cc(NC(=O)[C@@H](CCCCN)NC(=O)[C@H](CC(C)C)NC(=O)[C@@H](NC(=O)OC(C)(C)C)C(C)C)ccc12; assay: as §1
[8] = substrate: Cc1cc(=O)oc2cc(NC(=O)[C@@H](Cc3ccc(O)cc3)NC(=O)[C@H](NC(=O)[C@H](CC(C)C)NC(=O)[C@H](CC(C)C)NC(=O)CCC(=O)O)C(C)C)ccc12; assay: as §1
[9] = substrate: Cc1cc(=O)oc2cc(NC(=O)[C@H](CCCN=C(N)N)NC(=O)[C@H](CC(C)C)NC(=O)OCc3ccccc3)ccc12; assay: as §1
[10] = substrate: Cc1cc(=O)oc2cc(NC(=O)[C@H](NC(=O)[C@H](CC(C)C)NC(=O)[C@H](CC(C)C)NC(=O)CCC(=O)O)C(C)C)ccc12; assay: as §1

Chain of Calpain 1 (P04632 whole entry, one chain of several): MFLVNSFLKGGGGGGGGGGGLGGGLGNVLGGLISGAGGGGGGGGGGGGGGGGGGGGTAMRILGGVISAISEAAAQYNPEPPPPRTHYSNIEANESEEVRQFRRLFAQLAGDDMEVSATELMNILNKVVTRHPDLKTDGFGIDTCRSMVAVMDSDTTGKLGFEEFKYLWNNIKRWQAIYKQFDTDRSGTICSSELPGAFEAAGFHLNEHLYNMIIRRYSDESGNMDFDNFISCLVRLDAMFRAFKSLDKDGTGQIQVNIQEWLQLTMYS

Row | Molecule | k cat [1] [s⁻¹] | Ratio [2] [M⁻¹ s⁻¹] | other results
1 | Cc1cc(=O)oc2cc(NC(=O)[C@@H](Cc3ccc(O)cc3)NC(=O)[C@H](NC(=O)[C@H](CC(C)C)NC(=O)[C@H](CC(C)C)NC(=O)CCC(=O)O)C(C)C)ccc12 | 0.42 | 262 | 
2 | CC(C)C[C@H](NC(=O)OCc1ccccc1)C(=O)N[C@@H](CCCN=C(N)N)C(=O)Nc1ccc2c(C(F)(F)F)cc(=O)oc2c1 | 0.07 | 153 | 
3 | CC(C)C[C@H](NC(=O)[C@H]1O[C@@H]1C(=O)O)C(=O)NCCCCN=C(N)N |  |  | k obs / 1 (Calpain 1 (Homo sapiens)): 2500 M⁻¹ s⁻¹; k obs / 1 [3]: 7500 M⁻¹ s⁻¹
4 | Cc1cc(=O)oc2cc(NC(=O)[C@H](CCCN=C(N)N)NC(=O)[C@H](CC(C)C)NC(=O)OCc3ccccc3)ccc12 | 0.02 | 105 | 
5 | Cc1cc(=O)oc2cc(NC(=O)[C@@H](CCCCN)NC(=O)[C@H](CC(C)C)NC(=O)[C@@H](NC(=O)OC(C)(C)C)C(C)C)ccc12 | 0.49 | 83 | 
6 | COc1ccc2cccc(NC(=O)[C@H](CCCN=C(N)N)NC(=O)[C@H](CC(C)C)NC(=O)OCc3ccccc3)c2c1 | 0.52 | 1400 | 
7 | Cc1cc(=O)oc2cc(NC(=O)[C@H](NC(=O)[C@H](CC(C)C)NC(=O)[C@H](CC(C)C)NC(=O)CCC(=O)O)C(C)C)ccc12 | 0.29 | 141 | 
8 | CC(C)[C@H](NC(=O)OCc1ccccc1)C(=O)N1CCC[C@H]1C=O (Cbz-Val-Pro-aldehyde) |  |  | IC50 (Calpain 1): > 1000 nM
9 | B1 |  |  | Km [4]: 460 µM; Km [5]: 100 µM; Km [6]: 370 µM; Km [7]: 5900 µM; Km [8]: 160 µM; Km [9]: 190 µM; Km [10]: 200 µM
